From paper PMC11173721, “Discovery of a New Class of Lipophilic Pyrimidine-Biphenyl Herbicides Using an Integrated Experimental-Computational Approach” (Molecules, 2024)

The molecules below were run against T1, acetohydroxyacid synthase (AHAS) (Arabidopsis thaliana, UniProt P17597) (assay: purified AtAHAS colorimetric activity assay ([…] nm)).
T1 construct: gene ALS; wild-type
T1 sequence (P17597 56-670): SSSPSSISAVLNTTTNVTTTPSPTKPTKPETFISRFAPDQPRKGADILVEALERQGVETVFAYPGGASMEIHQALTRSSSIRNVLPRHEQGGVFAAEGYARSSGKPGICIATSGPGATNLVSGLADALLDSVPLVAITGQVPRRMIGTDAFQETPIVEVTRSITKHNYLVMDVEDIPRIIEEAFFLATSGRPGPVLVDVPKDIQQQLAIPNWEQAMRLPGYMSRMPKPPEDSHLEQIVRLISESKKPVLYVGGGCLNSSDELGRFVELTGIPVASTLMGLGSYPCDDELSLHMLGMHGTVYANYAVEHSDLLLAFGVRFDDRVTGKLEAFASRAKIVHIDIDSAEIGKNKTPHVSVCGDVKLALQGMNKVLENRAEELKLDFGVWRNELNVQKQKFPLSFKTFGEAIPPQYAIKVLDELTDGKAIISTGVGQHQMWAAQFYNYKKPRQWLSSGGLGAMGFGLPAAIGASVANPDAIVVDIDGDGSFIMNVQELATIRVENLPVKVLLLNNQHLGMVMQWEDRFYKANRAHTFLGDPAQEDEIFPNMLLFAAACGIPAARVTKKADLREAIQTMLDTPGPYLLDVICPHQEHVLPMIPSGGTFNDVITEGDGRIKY
Type: biochemical

IC50 | Compound
343 µM | COc1cc(OC)nc(Oc2ccccc2CNc2ccc(-c3ccccc3)cc2)n1 [IIIa]
189 µM | COc1cc(OC)nc(Oc2ccccc2CNc2cccc(-c3ccccc3)c2)n1 [IIa]
157 µM | COc1cc(OC)nc(Oc2ccccc2CNc2ccccc2-c2ccccc2)n1 [Ia]
593 µM | COc1cc(OC)nc(Oc2ccccc2CNc2ccccc2)n1 [PBA]
